Numbering of substitutions follows the chain as printed. Blank lines part the entries; values can stand above or below the compound they belong to. Calls of active or inactive are those of the source. The rule behind the calls is not given here.
Assays:
CAPAN-1 = experiment: Growth inhibition of BRCA2-deficient human Capan1 cells at 2.5 to 10 uM following media refreshment every 3 days and measured on day 10 by CellTiter-Glo assay; format: functional, cell-based
Homo sapiens [1] = organism: Homo sapiens; experiment: Growth inhibition of BRCA1-deficient human UWB1.289 cells at 2.5 to 10 uM following media refreshment every 3 days and measured on day 10 by CellTiter-Glo assay; format: functional
[2] = target: T1, DNA repair protein RAD51 homolog 1 (Homo sapiens) (UniProt Q06609); experiment: Inhibition of RAD51 (unknown origin) assessed as inhibition of DNA pairing by measuring D-loop formation between [32P]-ssDNA and homologous supercoiled pUC19 DNA at 30 uM incubated for 15 mins by gel electrophoresis method relative to control
T1 sequence (whole entry): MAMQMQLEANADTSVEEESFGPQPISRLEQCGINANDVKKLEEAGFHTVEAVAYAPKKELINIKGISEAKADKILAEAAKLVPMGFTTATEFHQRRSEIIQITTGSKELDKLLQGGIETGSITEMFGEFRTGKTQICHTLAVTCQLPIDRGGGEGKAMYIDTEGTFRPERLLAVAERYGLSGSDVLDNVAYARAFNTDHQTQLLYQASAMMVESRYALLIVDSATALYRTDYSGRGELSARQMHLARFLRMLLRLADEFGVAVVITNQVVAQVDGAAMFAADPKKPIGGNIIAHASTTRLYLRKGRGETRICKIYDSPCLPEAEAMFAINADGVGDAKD

[3] = target: T2, DNA repair protein RAD52 homolog (Homo sapiens) (UniProt P43351); experiment: Inhibition of RAD52 (unknown origin) assessed as inhibition of DNA pairing using [32P]-ssDNA by measuring D-loop formation incubated for 15 mins by gel electrophoresis method
T2 sequence (whole entry): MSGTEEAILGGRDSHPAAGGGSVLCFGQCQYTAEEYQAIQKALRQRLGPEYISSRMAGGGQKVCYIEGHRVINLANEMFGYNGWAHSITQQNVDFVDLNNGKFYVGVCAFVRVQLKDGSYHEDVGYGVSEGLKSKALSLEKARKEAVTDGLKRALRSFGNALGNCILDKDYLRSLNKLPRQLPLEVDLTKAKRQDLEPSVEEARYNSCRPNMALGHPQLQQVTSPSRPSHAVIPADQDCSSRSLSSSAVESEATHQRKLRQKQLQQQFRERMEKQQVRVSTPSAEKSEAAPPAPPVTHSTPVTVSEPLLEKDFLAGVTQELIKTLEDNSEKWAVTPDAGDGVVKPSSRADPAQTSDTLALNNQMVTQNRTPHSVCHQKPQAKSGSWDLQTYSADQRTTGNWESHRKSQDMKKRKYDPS

[4] = target: T1, DNA repair protein RAD51 homolog 1 (Homo sapiens); experiment: Inhibition of RAD51 (unknown origin) assessed as inhibition of DNA pairing by measuring D-loop formation between [32P]-ssDNA and homologous supercoiled pUC19 DNA at 10 times RAD52 IC50 incubated for 15 mins by gel electrophoresis method relative to control
Homo sapiens [5] = organism: Homo sapiens; experiment: Growth inhibition of BCR-ABL1-positive and BRCA1-deficient human CML cells at 2.5 to 10 uM treated with compound on days 0 and 2 and measured on day 4 by trypan blue staining based assay; format: functional
Salmon testes DNA = experiment: Binding affinity to salmon sperm DNA incubated for 20 mins by acridine orange displacement based fluorescence polarization assay; format: nucleic-acid assay; conditions: Salmonidae
Homo sapiens [6] = organism: Homo sapiens; experiment: Growth inhibition of BRCA1-proficient human CML cells at 2.5 to 10 uM treated with compound on days 0 and 2 and measured on day 4 by trypan blue staining based assay; format: functional
[7] = target: T2, DNA repair protein RAD52 homolog (Homo sapiens); experiment: Inhibition of RAD52 (unknown origin) expressed in BCR-ABL1-positive and BRCA1-deficient mouse 32Dcl3 cells expressing GFP-RAD52 assessed as reduction in cisplatin-induced RAD52 foci formation at 2.5 uM by AlexaFluor-594 staining based inverted fluorescence microscopy relative to control; format: cell-based
[8] = target: T2, DNA repair protein RAD52 homolog (Homo sapiens); experiment: (§1) Inhibition of RAD52 (unknown origin) expressed in BCR-ABL1-positive and BRCA1-deficient mouse 32Dcl3 cells expressing GFP-RAD52 assessed as cisplatin-induced RAD52 foci formation at 2.5 uM by AlexaFluor-594 staining based inverted fluorescence microscopy (reference value: 38.7 +/- 10%); format: cell-based; set-up: scale not given: the % may be the effect or the level left
[9] = target: T2, DNA repair protein RAD52 homolog (Homo sapiens); experiment: as §1, with “formation by measuring fraction of cell without foci” for “formation”, “48.4” for “38.7”, “6.2%)” for “10%)”; set-up: scale not given: the % may be the effect or the level left
[10] = target: T3, DNA repair protein RAD51 homolog 1 (Mus musculus) (UniProt Q08297); experiment: Inhibition of RAD51 in BCR-ABL1-positive and BRCA1-proficient mouse 32Dcl3 cells assessed as reduction in cisplatin-induced RAD51 foci formation by AlexaFluor-594 staining based inverted fluorescence microscopy
T3 sequence (whole entry): T1 sequence (whole entry) with N10S, F46Y, A76T, A194G

[11] = target: T4, DNA repair protein RAD51 homolog 1 (Mus musculus, UniProt Q08297); experiment: Induction of RAD51 foci formation in BCR-ABL1-positive and BRCA1-proficient mouse 32Dcl3 cells by AlexaFluor-594 staining based inverted fluorescence microscopy
T4 sequence (Q08297 whole entry): T1 sequence (whole entry) with N10S, F46Y, A76T, A194G

[12] = target: T5, DNA repair protein RAD52 homolog (Homo sapiens, UniProt P43351); experiment: Effect on RAD52 (unknown origin) expressed in BCR-ABL1-positive and BRCA1-deficient mouse 32Dcl3 cells expressing GFP-RAD52 assessed as induction of RAD52 foci formation by AlexaFluor-594 staining based inverted fluorescence microscopy; format: cell-based
T5 sequence (P43351 whole entry): T2 sequence (whole entry)

[13] = target: T2, DNA repair protein RAD52 homolog (Homo sapiens); experiment: Inhibition of RAD52 in human U2OS cells co-expressing SA-GFP assessed as reduction in single strand DNA annealing incubated for 48 hrs by GFP+ positive cells detection based flow cytometry; format: cell-based
[14] = target: T2, DNA repair protein RAD52 homolog (Homo sapiens); experiment: Inhibition of RAD52 in human U2OS cells co-expressing SA-GFP assessed as reduction in single strand DNA annealing at 30 uM incubated for 48 hrs by GFP+ positive cells detection based flow cytometry relative to control; format: cell-based
U2OS [15] = experiment: Effect on GFP+ positive cells in human U2OS cells co-expressing pMX-GFP up to 30 uM incubated for 48 hrs by flow cytometry relative to control; format: ADME, cell-based
U2OS [16] = experiment: Effect on homology dependent recombination in human U2OS cells co-expressing DR-GFP at 10 to 30 uM flow cytometry; format: functional, cell-based
U2OS [17] = experiment: Effect on homology dependent recombination in human U2OS cells co-expressing pMX-GFP at 10 to 30 uM by flow cytometry; format: functional, cell-based
[18] = target: T2, DNA repair protein RAD52 homolog (Homo sapiens); experiment: Inhibition of RAD52 in human U2OS cells co-expressing SSA-GFP assessed as inhibition of repair of I-Scel-induced double stranded breaks by measuring green fluorescence at 5 uM by flow cytometry (reference value: 7.1%); format: cell-based; set-up: scale not given: the % may be the effect or the level left
[19] = target: T2, DNA repair protein RAD52 homolog (Homo sapiens); experiment: Inhibition of RAD52 in human U2OS cells co-expressing SSA-GFP assessed as inhibition of repair of I-Scel-induced double stranded breaks by measuring green fluorescence at 10 uM by flow cytometry (reference value: 7.1%); format: cell-based; set-up: scale not given: the % may be the effect or the level left
[20] = target: T2, DNA repair protein RAD52 homolog (Homo sapiens); experiment: Inhibition of RAD52 in human U2OS cells co-expressing SSA-GFP assessed as inhibition of repair of I-Scel-induced double stranded breaks by measuring green fluorescence at 15 uM by flow cytometry (reference value: 7.1%); format: cell-based; set-up: scale not given: the % may be the effect or the level left
[21] = target: T2, DNA repair protein RAD52 homolog (Homo sapiens); experiment: Inhibition of RAD52 in human U2OS cells co-expressing SSA-GFP assessed as inhibition of repair of I-Scel-induced double stranded breaks by measuring green fluorescence at 20 uM by flow cytometry (reference value: 7.1%); format: cell-based; set-up: scale not given: the % may be the effect or the level left
[22] = target: T2, DNA repair protein RAD52 homolog (Homo sapiens); experiment: Inhibition of RAD52 in human U2OS cells co-expressing SSA-GFP assessed as inhibition of repair of I-Scel-induced double stranded breaks by measuring green fluorescence at 30 uM by flow cytometry (reference value: 7.1%); format: cell-based; set-up: scale not given: the % may be the effect or the level left
U2OS [23] = experiment: Effect on homology dependent recombination in human U2OS cells co-expressing DR-GFP assessed as measuring green fluorescence at 5 uM flow cytometry (reference value: 7.13%); format: functional
U2OS [24] = experiment: Effect on homology dependent recombination in human U2OS cells co-expressing DR-GFP assessed as measuring green fluorescence at 10 uM flow cytometry (reference value: 7.13%); format: functional
U2OS [25] = experiment: Effect on homology dependent recombination in human U2OS cells co-expressing DR-GFP assessed as measuring green fluorescence at 15 uM flow cytometry (reference value: 7.13%); format: functional
U2OS [26] = experiment: Effect on homology dependent recombination in human U2OS cells co-expressing DR-GFP assessed as measuring green fluorescence at 20 uM flow cytometry (reference value: 7.13%); format: functional
U2OS [27] = experiment: Effect on homology dependent recombination in human U2OS cells co-expressing DR-GFP assessed as measuring green fluorescence at 30 uM flow cytometry (reference value: 7.13%); format: functional

inhibition [2]: > 90%
inhibition [3]: Dose-dependent effect
inhibition [4]: 75.1%
SMILES: COc1ccc(OC)c(Nc2nc(NCCO)c3ccccc3n2)c1
growth inhibition (GI) (CAPAN-1): Active
growth inhibition (GI) (Homo sapiens [1]): Active

inhibition [2]: > 90%
inhibition [3]: Dose-dependent effect
Activity (Salmon testes DNA): inactive
fold change (FC) [7]: 2 to 2.5
Activity [8]: 17%
Activity [9]: 57.6%
inhibition [10]: inactive
inhibition [13]: Dose-dependent effect
fold change (FC) [14]: 3.4
Activity [18]: 6.54%
Activity [19]: 6.28%
Activity [20]: 4.08%
Activity [21]: 4.94%
Activity [22]: 2.43%
SMILES: CCN(CC)CCN=C(S)Nc1ccc2nc(N3CCN(C)CC3)cc(C)c2c1
growth inhibition (GI) (Homo sapiens [5]): Active
growth inhibition (GI) (CAPAN-1): Active
growth inhibition (GI) (Homo sapiens [1]): Active
growth inhibition (GI) (Homo sapiens [6]): inactive
Activity [11]: Non-Toxic
Activity [12]: Non-Toxic
Activity (U2OS [15]): Non-Toxic
Activity (U2OS [16]): inactive
Activity (U2OS [17]): inactive
Activity (U2OS [23]): 6.98%
Activity (U2OS [24]): 6.68%
Activity (U2OS [25]): 5.7%
Activity (U2OS [26]): 6.2%
Activity (U2OS [27]): 5.18%

inhibition [2]: > 90%
inhibition [3]: Dose-dependent effect
inhibition [4]: 111%
SMILES: CCCN(CCC)CCCNC(=S)Nc1ccc2nc(N3CCN(C)CC3)cc(C)c2c1

Continued, compound first:

SMILES: CCN(CC)CCCN(Cc1cc2cc3c(cc2nc1O)OCO3)C(S)=NCCCN(C)C
inhibition [2]: > 90%
inhibition [3]: Dose-dependent effect
inhibition [4]: 102%

SMILES: Cn1nc(-c2ccc(Cl)cc2)c2cc(C(=O)NCCCN3CCCCCC3)sc21
growth inhibition (GI) (CAPAN-1): Active
growth inhibition (GI) (Homo sapiens [1]): Active
inhibition [2]: > 90%
inhibition [3]: Dose-dependent effect
inhibition [4]: 48.6%

SMILES: CCCCN(CC)CCNC(=O)c1cc2c(-c3ccc(Cl)cc3)nn(C)c2s1
growth inhibition (GI) (CAPAN-1): Active
growth inhibition (GI) (Homo sapiens [1]): Active
inhibition [2]: > 90%
inhibition [3]: Dose-dependent effect
inhibition [4]: 58.6%

SMILES: COc1ccccc1Nc1nc(NCCCO)c2ccccc2n1
growth inhibition (GI) (CAPAN-1): Active
growth inhibition (GI) (Homo sapiens [1]): Active
inhibition [2]: > 90%
inhibition [3]: Dose-dependent effect
inhibition [4]: 89.7%

SMILES: Cc1cc(N2CCN(C)CC2)nc2ccc(NC(S)=NCCCN3CCN(C)CC3)cc12
inhibition [2]: > 90%
inhibition [3]: Dose-dependent effect
inhibition [4]: 112%

SMILES: COc1ccc(-c2nc(C(=O)NCCCN3CCOCC3)cc3c2[nH]c2ccccc23)cc1OC
inhibition [2]: > 90%
inhibition [3]: Dose-dependent effect
inhibition [4]: 93.7%
